How the values were obtained:
CD8^+ T-lymphocytes [1] = test: qRT-PCR of differentiation, memory and pluripotency associated genes; type: cell-based, mouse; conditions: 0.5 mM; for transcript levels of Eomes, acute treatment: 24 h; for expression of pluripotency associated genes (Oct3/4, Sox2, Nanog, Klf4): with IL2; for Il2 and Ifng mRNA expression: 24 h or 7 days; for Eomes expression levels after continuous treatment: 7 days
Method: FIGS. 8E, 8F and 8G show expression of II2(8E), Ifng (8F), and Eomes (8G) mRNA in CD8^+ T-lymphocytes activated for 48 h with αCD3+αCD28 antibodies and then expanded for a further 2 days in the presence of IL-2. Cells were then treated for either 24 h or 7 days with or without 0.5 mM S-2HG-octyl ester or R-2HG-octyl ester. n≥4 mice per group.
Activated CD8^+ T-lymphocytes were treated with 0.5 mM of either S-2HG-octyl ester or R-2HG-octyl ester for 1 day or 7 days in the presence of IL2. The induction seen with R-2HG-octyl ester is weaker than with S-2HG-octyl ester. Each dot represents an individual donor mouse, n=4 mice. error bars denote the s.d.
RNA was isolated using the RNeasy kit (Qiagen). 1 μg of RNA was used for cDNA synthesis with the First-Strand Synthesis kit (Invitrogen). All samples were run in technical triplicates using a StepOnePlus system (Applied Biosystems) with SYBR green.

CD8^+ T-lymphocytes [2] = test: Glucose, lactate and VEGF measurements in media; type: cell-based, mouse; conditions: 0.5 mM, 16 hours
Method: Each dot represent one donor mouse n≥16 mice. P-values are shown for each panel; one-way ANOVA for multiple comparisons (A, B and C). n.s.=non significant.
CD8^+ T-cells were expanded for 4 days and then treated for 16 h with S-2HG octyl ester or R-2HG octyl ester. Glucose and lactate levels in culture medium were measured with a Dade-Behring Dimension RXL analyser. Changes in metabolite concentrations relative to fresh media were normalized to viable cell counts. VEGF, IL-2 and IFN-γ protein levels in media were determined using the following kits from MesoScale Discovery: K150BMC-2 for VEGF, K15048D-2 for IFN-γ and K152QQD-2 for IL-2. Values were normalized to viable cell counts.

[3] = test system: OT-I CD8^+CD45.1^+ T-lymphocytes; test: In vivo memory recall experiment (adoptive transfer, vaccination); parameters: species or system mouse; conditions: for formation of memory cells after in vitro treatment of CD8+ T-cells: 0.5 mM, 7 days with IL-2 (FIGS. 13, 16, 17); for in vivo recall in response to vaccination: cells pre-treated 7 days with 0.5 mM, 37 days after adoptive transfer
Method: FIGS. 13B and 13C show representative flow cytometry plots of (B) CD8^+CD45.1^+ (C) or Kb/SIINFEKL Pentamer^+CD45.1^+ T-lymphocytes, in the spleens of vaccinated litter mate CD45.2 mice, 37 days after adoptive transfer of SIINFEKL-activated OT-I CD8^+CD45.1^+ T-lymphocytes, expanded with 0.5 mM S-2HG-octyl ester, 0.5 mM R-2HG-octyl ester or vehicle in the presence of IL-2 for 7 days. FIGS. 13D-F show (13D) the number of recovered CD45.1^+CD8^+ T-lymphocytes per spleen and (13E) % CD45.1^+ cells of the total CD8^+ population in each spleen or (13F) number of recovered Kb/SIINFEKL Pentamer^+CD45.1^+ T-lymphocytes per spleen 7 days after vaccination (37 days after the CD8+ T-cells were transferred into the mice). n=6 mice per group and error bars denote the s.e.m.
Total splenocytes from OT-1 CD45.1^+ mice were activated with 1000 nM SIINFEKL peptide in the presence of IL-2 and vehicle, 0.5 mM S-2HG-octyl ester or 0.5 mM R-2HG-octyl ester for 7 days. 1 million CD45^+CD8^+ cells were then injected intravenously into C57/B6 wild type CD45.2^+ host mice. 30 days later, host mice were vaccinated i.p. with SIINFEKL-loaded dendritic cells. 7 days later, spleens were harvested from host mice and the presence of CD45.1^+CD8^+ and Kb/SIINFEKL Pentamer+cells was determined by flow cytometry. Absolute numbers of cells were determined with the use of counting beads (CountBright, Life Technologies). Dendritic cells were prepared from bone marrow extracted from wild type C57/B6 mice. Bone marrow derived cells were cultured in non-TC treated petri dishes in RPMI-1640 medium containing 2 mM glutamine, 10% FBS, 25 mM HEPES, pH 7.2, 1% penicillin-streptomycin, 55 μM […] supplemented 20 ng/ml mGM-CSF (R&D Systems). After 8 days of culture, dendritic cells were activated with 1 μg/ml LPS (Sigma) for 24 h. The maturation of dendritic cells was confirmed by flow cytometry using the following markers: MHC class II-APC, CD11b-AF488, CD11c-AF488 and CD86-PE/Cy7 (Biolegend). Mature dendritic cells were then loaded with 2 μM SIINFEKL peptide at 37° C. for 1 hour. After peptide loading, dendritic cells were detached with 3 mM EDTA in PBS for 5-10 min at 37° C. and washed with PBS. For vaccination, 1 million peptide-loaded dendritic cells were injected i.p. per mouse in 100 μl PBS.

CD8^+ T-lymphocytes [4] = test: Flow cytometry of CD44 and CD62L surface expression; type: cell-based, mouse; conditions: for CD62L effect when treating CD62L^low CD44^high effector cells: 0.5 mM added after 7 days of vehicle; for reversibility of the CD62L effect upon withdrawal of treatment: 0.5 mM for 7 days then washout, followed 9 more days; for formation of a CD62L^high CD44^high population / effect on CD62L when HIF-1α is absent / CD62L downregulation in HIF-2a null cells: 0.5 mM; for formation of a CD62L^high CD44^high population: with IL-2, antigen specific (OT-I) and polyclonal CD8+ T-lymphocytes; for effect on CD62L when HIF-1α is absent: Hif1α^−/− CD8+ T-lymphocytes; for CD62L downregulation in HIF-2a null cells: Hif2α^−/− CD8+ T-lymphocytes, versus wild type controls
From the text: Data are representative of n=4 individual mice.
Data are representative of 3 mice per genotype.
Data are representative of 2 mice per genotype.
Data are representative of n=3 individual mice.
Cells were stained and acquired on a Fortessa (BD Biosciences). […] For staining of nuclear-located marker Eomes, the Transcription Factor Staining Buffer Set (eBioscience) was used, according to the manufacturer's instructions. For staining of intracellular cytokines, OT-I cells were re-stimulated with […] peptide for 4 h with GolgiStop solution (BD). For ^1H-NMR experiments, CD8^+ T-lymphocytes were sorted from total splenocytes by immunostaining with anti-mouse CD8-AF647 (Biolegend) on a MoFlo (Beckman Coulter). Cells were then activated and cultured as described above.

OT-I CD8^+ T-lymphocytes = test: Survival in the absence of IL-2 supplementation; type: cell-based, mouse; conditions: 0.5 mM
Method: OT-I CD8^+ T-lymphocytes were incubated with target and control cells for 4 hours. n=3 mice per condition. […]
Cells were counted on an ADAM-MC automated cell counter (NanoEnTek) and viability was assessed by the exclusion of propidium iodide. Cell volume was determined using a Z2 Coulter counter (Beckman Coulter).

Row | Compound | expression of memory associated transcripts (including Ccr7) (CD8^+ T-lymphocytes [1]) | transcript levels of Eomes, acute treatment (CD8^+ T-lymphocytes [1]) | induction of pluripotency associated genes compared with S-2HG-octyl ester (CD8^+ T-lymphocytes [1]; 1 day or 7 days) | expression of pluripotency associated genes (Oct3/4, Sox2, Nanog, Klf4) (CD8^+ T-lymphocytes [1]; 1 day or 7 days) | Il2 and Ifng mRNA expression (CD8^+ T-lymphocytes [1]) | Eomes expression levels after continuous treatment (CD8^+ T-lymphocytes [1]) | VEGF production (CD8^+ T-lymphocytes [2]) | glucose uptake (CD8^+ T-lymphocytes [2]) | lactate secretion (CD8^+ T-lymphocytes [2]) | formation of memory cells after in vitro treatment of CD8+ T-cells [3] | in vivo recall in response to vaccination [3] | CD62L effect when treating CD62L^low CD44^high effector cells (CD8^+ T-lymphocytes [4]) | reversibility of the CD62L effect upon withdrawal of treatment (CD8^+ T-lymphocytes [4]) | formation of a CD62L^high CD44^high population (CD8^+ T-lymphocytes [4]) | effect on CD62L when HIF-1α is absent (CD8^+ T-lymphocytes [4]) | CD62L downregulation in HIF-2a null cells (CD8^+ T-lymphocytes [4]) | ability to survive in the absence of IL-2 supplementation (OT-I CD8^+ T-lymphocytes)
1 | CCCCCCCCOC(=O)[C@H](O)CCC(=O)O [R-2HG-octyl ester] | increased | represses | weaker | induces the expression | mediated at the transcriptional level | higher expression levels | elevated | elevated | elevated | induces the formation | enhanced in vivo recall | does not occur | reversible | promotes the formation | masks the effects | inhibits CD62L downregulation | elevated ability to survive
2 | CCCCCCCCOC(=O)[C@@H](O)CCC(=O)O [S-2HG-octyl ester, S-2HG octyl ester] | increased | represses |  | induces the expression | mediated at the transcriptional level | higher expression levels | elevated | elevated | elevated | induces the formation | enhanced in vivo recall | does not occur | reversible | promotes the formation | masks the effects | inhibits CD62L downregulation | elevated ability to survive

From patent publication US20190316085A1, “Methods Of T-Lymphocyte Expansion” (Cambridge Enterprise Limited, priority 2015, published 2019)
